Laboratory results published in patent US8367328B2, “Method for synthesizing DNA” (Takara Bio Inc., priority 1998, dated 2013).

Biological target: T1, Taq DNA Polymerase (Thermus aquaticus, UniProt P19821)
T1 construct: purchased Takara Shuzo Co., Ltd
Test: PCR with Taq DNA Polymerase in the presence of cationic complexes
Assay type: biochemical
Conditions: for Amount of amplified DNA relative to No Addition (=1), Taq: 100 pg E. coli JM109 genomic DNA, primers Eco1/Eco2, 30 cycles 98°C 5 s–68°C 2 min, FM-BIO 100
Source text: Using hexaamminecobalt (III) chloride ([Co(NH3)6]Cl3) (manufactured by Sigma), tris(ethylenediamine)cobalt (III) chloride ([Co(C2H8N2)3]Cl3) (manufactured by Aldrich), or tris(ethylenediamine)rhodium (III) trichloride•trihydrate ([Rh(C2H8N2)3]Cl3.3H2O) (manufactured by Aldrich), the effects on the amplification reaction by various kinds of DNA polymerases were examined. As the DNA polymerases, TaKaRa Taq DNA Polymerase (hereinafter referred to as “Taq DNA Polymerase” manufactured by Takara Shuzo Co., Ltd.), Pyrobest DNA Polymerase (manufactured by Takara Shuzo Co., Ltd.) and Ex Taq DNA Polymerase (manufactured by Takara Shuzo Co., Ltd.) were used.
A reaction mixture comprising Escherichia coli JM109 genomic DNA as a template, primers Eco1 and Eco2 as a primer pair, and DNA polymerase was prepared, and PCR was carried out. The compositions of the reaction mixture for each enzyme are as follows.
5 μl of buffer for 10×Taq PCR buffer (manufactured by Takara Shuzo Co., Ltd.), 0.2 mM each of dATP, dCTP, dGTP and dTTP, 1.25 U of Taq DNA Polymerase, 100 pg of Escherichia coli JM109 genomic DNA, and 10 pmol each of primers Eco1 and Eco2 (a final volume being 50 μl).
Further, an aqueous solution of the above-mentioned complexes each so as to have a final concentration of 50 μM, 100 μM, or 200 μM was added to the above reaction mixture.
The reaction was carried out in Fast mode by using TaKaRa PCR Thermal Cycler Personal (manufactured by Takara Shuzo Co., Ltd.). The reaction conditions are as follows. When using Taq DNA Polymerase and Pyrobest DNA Polymerase, the reaction in 30 cycles was carried out for each of these reaction mixtures, wherein one cycle of reaction comprises a process consisting of 98° C., 5 seconds—68° C., 2 minutes, and when using ExTaq DNA Polymerase, the reaction in 30 cycles was carried out for each of these reaction mixtures, wherein one cycle of reaction comprises a process consisting of 98° C., 5 seconds—68° C., 1 minute. After the termination of the reaction, 5 μl of the resulting reaction mixture was subjected to electrophoresis on 2% agarose gel containing ethidium bromide in an amount of 0.00005%. The gel after the electrophoresis was subjected to ultraviolet irradiation to visualize the band ascribed to the amplified product, whereby an amplified fragment was confirmed. The amount of amplified DNA was numerically explained by using a fluorescent image analyzer FM-BIO 100 (manufactured by Takara Shuzo Co., Ltd.).
The DNA polymerases used and the composition for the reaction mixture were similar to those in Example 17, except for the cationic complex, where in cases of using Taq DNA Polymerase and Pyrobest DNA Polymerase, hexaamminecobalt (III) chloride was added so as to have a final concentration of 100 μM, and in a case of using ExTaq DNA Polymerase, hexaamminecobalt (III) chloride was added so as to have a final concentration of 50 μM, respectively.
The reaction was carried out in Fast mode by using TaKaRa PCR Thermal Cycler Personal. The reaction conditions are as follows. When using Taq DNA Polymerase and Pyrobest DNA Polymerase, the reaction in 30 cycles was carried out, wherein one cycle of reaction comprises a process consisting of 98° C., […], 60 seconds or 80 seconds or 100 seconds or 120 seconds. When using ExTaq DNA Polymerase, the reaction in 30 cycles was carried out, wherein one cycle of reaction comprises a process consisting of 98° C., 5 seconds—68° C., 30 seconds or 40 seconds or 50 seconds or 60 seconds.
On the other hand, as a control, the time period or number of cycles for annealing and extension reaction were determined so as to obtain the same amount of the amount of amplified product for one without addition of the cationic complex mentioned above.
After the termination of the reaction, 5 μL of the resulting reaction mixture was subjected to electrophoresis on 2% agarose gel containing ethidium bromide in an amount of 0.00005%. […]

T1 sequence (P19821 whole entry): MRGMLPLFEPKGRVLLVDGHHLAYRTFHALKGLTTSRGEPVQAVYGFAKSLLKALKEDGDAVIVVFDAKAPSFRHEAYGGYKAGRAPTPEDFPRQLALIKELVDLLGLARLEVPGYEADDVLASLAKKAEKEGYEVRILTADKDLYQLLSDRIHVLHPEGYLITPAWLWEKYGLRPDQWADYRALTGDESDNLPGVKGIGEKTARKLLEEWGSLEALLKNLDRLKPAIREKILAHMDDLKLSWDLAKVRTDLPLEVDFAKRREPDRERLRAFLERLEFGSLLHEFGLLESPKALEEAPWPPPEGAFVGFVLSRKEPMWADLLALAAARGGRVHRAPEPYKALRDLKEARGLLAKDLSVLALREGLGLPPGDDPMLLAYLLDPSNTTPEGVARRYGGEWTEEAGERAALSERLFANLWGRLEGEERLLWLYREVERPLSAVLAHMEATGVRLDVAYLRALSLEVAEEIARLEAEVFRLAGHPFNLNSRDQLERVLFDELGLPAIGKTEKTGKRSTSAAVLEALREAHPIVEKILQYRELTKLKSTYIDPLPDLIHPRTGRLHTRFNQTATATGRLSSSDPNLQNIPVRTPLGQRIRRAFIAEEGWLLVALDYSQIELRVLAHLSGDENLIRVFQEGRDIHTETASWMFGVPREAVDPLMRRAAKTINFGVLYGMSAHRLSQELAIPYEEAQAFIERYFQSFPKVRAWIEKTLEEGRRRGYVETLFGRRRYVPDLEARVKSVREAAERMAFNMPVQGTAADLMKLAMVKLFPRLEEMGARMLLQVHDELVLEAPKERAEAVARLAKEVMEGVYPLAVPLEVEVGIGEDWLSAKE

| Structure (SMILES) | Amount of amplified DNA relative to No Addition (=1), Taq (complex 50 μM) | Amount of amplified DNA relative to No Addition (=1), Taq (complex 100 μM) | Amplification with one-half the usual enzyme amount versus usual amount without addition (Taq 0.625 U + 100 μM complex vs 1.25 U without addition) | Amplification of desired long DNA fragment (Taq, 10 ng E. coli genome, primers Eco1/Eco5 (10 kb), 30 cycles 98°C 5 s–68°C 10 min, 10 μM or 20 μM, only slight without addition) | Reaction time period as fraction of that of no addition (Taq, 100 μM) | Time Period Required (for same amount of amplified product) (Taq, 100 μM complex added, 98°C 5 s–68°C 60 s, 30 cycles (no addition: 120 s, 31 cycles, 4911 s)) [s] | Primer amount with which a fragment can still be amplified (Taq, 100 μM complex, primers 2–20 pmol tested, no amplification without addition) [pmol] | Amount of template DNA at which amplification was still possible (Taq, 100 μM complex, templates 1 pg–1 ng tested, no amplification at 1 pg without addition) [pg] | Amplification in low-magnesium reaction mixture (Taq, 0.75 mM magnesium chloride (usual 1.5 mM), 100 μM complex, no amplification without addition) | Amount of amplified DNA relative to No Addition (=1), Taq (complex 200 μM) |
| --- | --- | --- | --- | --- | --- | --- | --- | --- | --- | --- |
| NCCN.NCCN.NCCN.[Cl-].[Cl-].[Cl-].[Co+3] [[Co(H2NCH2CH2NH2)3]Cl3, tris(ethylenediamine)cobalt (III) chloride] | 2.6 | 3.0 |  |  |  |  |  |  |  |  |
| N.N.N.N.N.N.[Cl-].[Cl-].[Cl-].[Co+3] [[Co(NH3)6]Cl3, hexaamminecobalt (III) chloride] | 2.3 | 2.9 | almost the same level | excellently amplified | about ⅗ | 2953 | 2 | 1 | allowed to amplify |  |
| NCCN.NCCN.NCCN.O.O.O.[Cl][Rh]([Cl])[Cl] [[Rh(H2NCH2CH2NH2)3]Cl3, tris(ethylenediamine)rhodium (III) trichloride•trihydrate] | 1.4 | 2.1 |  |  |  |  |  |  |  | 2.5 |
